{"source": "patent US10526311B2", "about": "(ASTEX THERAPEUTICS LIMITED, priority 2015, dated 2020)", "key": {"[1]": {"target": "MDM2-p53 interaction (in vitro translated MDM2, biotinylated IP3 peptide) (Homo sapiens, UniProt Q00987)", "sequence (Q00987 whole entry)": "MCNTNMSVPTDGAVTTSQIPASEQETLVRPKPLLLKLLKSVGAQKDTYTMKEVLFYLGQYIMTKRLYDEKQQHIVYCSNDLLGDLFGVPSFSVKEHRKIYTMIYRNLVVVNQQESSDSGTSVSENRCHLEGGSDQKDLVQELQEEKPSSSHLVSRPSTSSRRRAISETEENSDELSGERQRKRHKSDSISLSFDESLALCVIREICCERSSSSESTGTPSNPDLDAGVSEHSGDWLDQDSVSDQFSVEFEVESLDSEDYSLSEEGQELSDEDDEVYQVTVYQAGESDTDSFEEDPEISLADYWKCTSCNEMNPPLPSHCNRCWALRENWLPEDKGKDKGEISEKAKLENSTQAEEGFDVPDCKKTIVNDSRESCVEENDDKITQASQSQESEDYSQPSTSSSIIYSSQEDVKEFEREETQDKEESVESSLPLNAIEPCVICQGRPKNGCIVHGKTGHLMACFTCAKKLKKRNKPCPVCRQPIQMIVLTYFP", "assay": "MDM2-p53 interaction 96-well plate binding assay (ELISA)", "conditions": "for inhibition at 0.03 µM: @ 0.030 μM", "protocol": "The ELISA assay was performed in streptavidin coated plates which were preincubated with 200 μl per well of 1 μg ml^−1 biotinylated IP3 peptide. The plates were ready to use for MDM2 binding after washing the plate with PBS.\nThe unbound secondary antibody was removed by washing three times with TBS-Tween. The bound HRP activity was measured by enhanced chemiluminesence (ECL™, Amersham Biosciences) using the oxidation of the diacylhydrazide substrate, luminol, to generate a quantifiable light signal. The percentage of MDM2 inhibition at a given concentration is calculated as the [1−(RLU detected in the compound treated sample−RLU negative DMSO control)÷(RLU of DMSO positive and negative controls)]×100 or as the (RLU detected in the compound treated sample÷RLU of DMSO controls)×100. The IC50 was calculated using a plot of % MDM2 inhibition vs concentration and is the average of two or three independent experiments."}, "SJSA-1": {"test_system": "SJSA-1", "assay": "Protocol B: SJSA-1 CellTiter-Glo cell viability", "protocol": "Protocol B: SJSA-1 and SN40R2 Assays\nThe CellTiter-Glo® Luminescent Cell Viability Assay is a homogeneous method to determine the number of viable cells in culture based on quantitation of the ATP present, which signals the presence of metabolically active cells. […] 100 μl of CTG reagent (Promega #G7573) was added to all wells and luminescence was measured on the topcount. The EC50 values were determined from a sigmoidal 4 parameter curve fit using XLfit in conjunction with Activity Base (IDBS; Guildford, Surrey, UK)."}, "[2]": {"conditions": "@ 0.0010 μM, read-out: MDM2 % @ concentration"}, "[3]": {"conditions": "@ 0.10 μM, read-out: MDM2 % @ concentration"}, "[4]": {"conditions": "Homo sapiens, SJSA-1, 72 h, read-out: SJSA1 IC50 (Protocol B), SJSA-1 cells, CellTiter-Glo, 72 hrs"}, "[5]": {"conditions": "@ 0.30 μM, read-out: MDM2 % @ concentration"}, "[6]": {"conditions": "read-out: MDM2 % @ concentration"}}, "note": "Where two headings read alike, the source gives them in different places.", "data": [{"molecule": "CN1CCC(C(C)(O)c2cc(F)c3c(c2)C(=O)N(Cc2ccc(Cl)cn2)[C@@]3(OCC2(CO)CC2)c2ccc(Cl)cc2)CC1", "note": "(single isomer, unassigned) [Example 555]", "values": [{"measurement": "inhibition at 0.001 µM", "setting": "[1]; [2]", "value": 55, "unit": "%"}, {"measurement": "IC50", "setting": "SJSA-1; Homo sapiens, SJSA-1, 72 h, read-out: SJSA1 IC50 (μM) (Protocol B), SJSA-1, Protocol B (CellTiter-Glo), 72 hrs", "value": 0.079, "unit": "µM"}]}, {"molecule": "C[C@@H](c1ccc(Cl)cn1)N1C(=O)c2cc(C(C)(C)O)cc(F)c2[C@]1(OCC1(C(N)=O)CC1)c1ccc(Cl)cc1", "note": "[Example 70, 1-({[(1R)-1-(4-chlorophenyl)-2-[(1S)-1-(5-chloropyridin-2-yl)ethyl]-7-fluoro-5-(2-hydroxypropan-2-yl)-3-oxo-2,3-dihydro-1H-isoindol-1-yl]oxy}methyl)cyclopropane-1-carboxamide]", "values": [{"measurement": "IC50", "setting": "[1]", "value": 3.2, "unit": "nM"}]}, {"molecule": "COc1ccc(CN2C(=O)c3cc(C(C)(O)c4cnn(C)c4)cc(F)c3[C@]2(OCC2(O)CC2)c2ccc(Cl)cc2)nc1", "note": "(stereo partly drawn) [Example 228, (3R)-3-(4-chlorophenyl)-4-fluoro-6-[1-hydroxy-1-(1-methyl-1H-pyrazol-4-yl)ethyl]-3-[(1-hydroxycyclopropyl)methoxy]-2-[(5-methoxypyridin-2-yl)methyl]-2,3-dihydro-1H-isoindol-1-one]", "values": [{"measurement": "inhibition at 0.01 µM", "setting": "[1]; @ 0.010 μM, read-out: MDM2 % @ concentration", "value": 61, "unit": "%"}]}, {"molecule": "CCC(O)(c1cc(F)c2c(c1)C(=O)N(Cc1ccc(C#N)cn1)[C@@]2(OCCO)c1ccc(Cl)cc1)C1(F)CCOCC1", "note": "(single isomer, unassigned) [Example 500]", "values": [{"measurement": "inhibition at 0.1 µM", "setting": "[1]; [3]", "value": 21, "unit": "%"}, {"measurement": "SJSA1 (Protocol B) % at concentration", "setting": "SJSA-1; SJSA-1, Protocol B, at 10 μM", "value": 16, "unit": "% at 10"}]}, {"molecule": "CCCC(O)(c1cc(F)c2c(c1)C(=O)N(Cc1ccc(C#N)cn1)[C@@]2(O[C@H]1CCOC1)c1ccc(Cl)cc1)c1cn(C)cn1", "note": "(single isomer, unassigned) [Example 473]", "values": [{"measurement": "inhibition at 0.1 µM", "setting": "[1]; [3]", "value": 44, "unit": "%"}]}, {"molecule": "CCC(O)(c1cc(F)c2c(c1)C(=O)N(Cc1ccc(C#N)cn1)[C@@]2(O[C@H]1CCOC1)c1ccc(Cl)cc1)c1cnn(C)c1", "note": "(single isomer, unassigned) [Example 359]", "values": [{"measurement": "inhibition at 0.1 µM", "setting": "[1]; [3]", "value": 50, "unit": "%"}]}, {"molecule": "Cn1cc(C(C)(O)c2cc(F)c3c(c2)C(=O)N(Cc2ccc(Cl)c[n+]2[O-])[C@@]3(OCC2(CO)CC2)c2ccc(Cl)cc2)cn1", "note": "(single isomer, unassigned) [Example 407]", "values": [{"measurement": "inhibition at 0.001 µM", "setting": "[1]; [2]", "value": 62, "unit": "%"}, {"measurement": "IC50", "setting": "SJSA-1; [4]", "value": 0.58, "unit": "µM"}]}, {"molecule": "CO[C@]1(c2ccc(Cl)cc2)c2c(F)cc(C(C)(O)c3cnn(C4CN(C(=O)OC(C)(C)C)C4)c3)cc2C(=O)N1Cc1ccc(Cl)cn1", "note": "(single isomer, unassigned) [Example 457]", "values": [{"measurement": "inhibition at 0.3 µM", "setting": "[1]; [5]", "value": 53, "unit": "%"}]}, {"molecule": "CCC(O)(c1cc(F)c2c(c1)C(=O)N(Cc1ccc(C#N)cn1)[C@@]2(O[C@H]1C[C@@H](O)C1)c1ccc(Cl)cc1)[C@H]1CC[C@H](O)CC1", "note": "(single isomer, unassigned) [Example 520]", "values": [{"measurement": "inhibition at 0.03 µM", "setting": "[1]; [6]", "value": 32, "unit": "%"}, {"measurement": "IC50", "setting": "SJSA-1; read-out: SJSA1 IC50 (μM) (Protocol B), SJSA-1, Protocol B (CellTiter-Glo), 72 hrs", "value": 3.9, "unit": "µM"}]}, {"molecule": "CO[C@]1(c2ccc(Cl)cc2)c2ccc(C(C)(O)CN3CC(=O)NC3=O)cc2C(=O)N1Cc1ccc(Cl)cn1", "note": "(single isomer, unassigned) [Example 330]", "values": [{"measurement": "MDM2 % @ concentration", "setting": "[1]; @ 0.30 μM", "value": 36, "unit": "% @ 0.30"}]}, {"molecule": "CO[C@]1(c2ccc(Cl)cc2)c2ccc(C(C)(O)CN3CCNC3=O)cc2C(=O)N1Cc1ccc(Cl)cn1", "note": "(single isomer, unassigned) [Example 157]", "values": [{"measurement": "inhibition at 0.3 µM", "setting": "[1]; [5]", "value": 39, "unit": "%"}]}, {"molecule": "Cn1cc(C(C)(O)c2cc(F)c3c(c2)C(=O)N(Cc2ncc(F)cc2F)[C@@]3(OCC2(O)CC2)c2ccc(Cl)cc2)cn1", "note": "(single isomer, unassigned) [Example 350]", "values": [{"measurement": "inhibition at 0.03 µM", "setting": "[1]; [6]", "value": 54, "unit": "%"}]}, {"molecule": "COc1ccc(CN2C(=O)c3cc(C(C)(O)c4cnn(C)c4)cc(F)c3[C@]2(OCC2(O)CC2)c2ccc(Cl)cc2)nc1", "note": "(stereo partly drawn) [Example 347, (3R)-3-(4-chlorophenyl)-4-fluoro-6-[1-hydroxy-1-(1-methyl-1H-pyrazol-4-yl)ethyl]-3-[(1-hydroxycyclopropyl)methoxy]-2-[(5-methoxypyridin-2-yl)methyl]-2,3-dihydro-1H-isoindol-1-one]", "values": [{"measurement": "inhibition at 0.1 µM", "setting": "[1]; [3]", "value": 63, "unit": "%"}]}, {"molecule": "CC(C)(O)c1cc(F)c2c(c1)C(=O)N([C@H](c1ccc(Cl)cn1)C(O)CO)[C@@]2(OCC1(O)CC1)c1ccc(Cl)cc1", "note": "(stereo partly drawn) [Example 331, (3R)-3-(4-Chlorophenyl)-2-[(1R)-1-(5-chloropyridin-2-yl)-2,3-dihydroxypropyl]-4-fluoro-3-[(1-hydroxycyclopropyl)methoxy]-6-(2-hydroxypropan-2-yl)-2,3-dihydro-1H-isoindol-1-one]", "values": [{"measurement": "inhibition at 0.03 µM", "setting": "[1]; [6]", "value": 49, "unit": "%"}]}, {"molecule": "CC(C)(O)c1cc(F)c2c(c1)C(=O)N(Cc1ccc(Cl)cn1)[C@@]2(OCC1(CNCCO)CC1)c1ccc(Cl)cc1", "note": "[Example 326, (3R)-3-(4-chlorophenyl)-2-[(5-chloropyridin-2-yl)methyl]-4-fluoro-3-[(1-{[(2-hydroxyethyl)amino]methyl}cyclopropyl)methoxy]-6-(2-hydroxypropan-2-yl)-2,3-dihydro-1H-isoindol-1-one]", "values": [{"measurement": "inhibition at 0.03 µM", "setting": "[1]; [6]", "value": 50, "unit": "%"}, {"measurement": "IC50", "setting": "SJSA-1; [4]", "value": 2, "unit": "µM"}]}, {"molecule": "C[C@H](c1ccc(Cl)cn1)N1C(=O)c2cc(C(C)(C)O)cc(F)c2[C@]1(OCC1(C(N)=O)CC1)c1ccc(Cl)cc1", "note": "[Example 71, 1-({[(1R)-1-(4-chlorophenyl)-2-[(1R)-1-(5-chloropyridin-2-yl)ethyl]-7-fluoro-5-(2-hydroxypropan-2-yl)-3-oxo-2,3-dihydro-1H-isoindol-1-yl]oxy}methyl)cyclopropane-1-carboxamide]", "values": [{"measurement": "IC50", "setting": "[1]", "value": 82, "unit": "nM"}]}, {"molecule": "CO[C@]1(c2ccc(Cl)cc2)c2ccc(C(C)(O)C(=O)NCCN(C)C)cc2C(=O)N1Cc1ccc(Cl)cn1", "note": "(stereo partly drawn) [Example 150, 2-[(1R)-1-(4-Chlorophenyl)-2-[(5-chloropyridin-2-yl)methyl]-1-methoxy-3-oxo-2,3-dihydro-1H-isoindol-5-yl]-N-[2-(dimethylamino)ethyl]-2-hydroxypropanamide]", "values": [{"measurement": "inhibition at 0.1 µM", "setting": "[1]; [3]", "value": 49, "unit": "%"}]}, {"molecule": "CCC(O)(c1cc(F)c2c(c1)C(=O)N(Cc1ccc(C#N)cn1)[C@@]2(O[C@H]1CCOC1)c1ccc(Cl)cc1)c1cnn(C)c1", "note": "(single isomer, unassigned) [Example 358]", "values": [{"measurement": "inhibition at 0.001 µM", "setting": "[1]; [2]", "value": 74, "unit": "%"}]}, {"molecule": "CO[C@]1(c2ccc(Cl)cc2)c2c(F)cc(C(C)(O)C3CCN(C(=O)CO)CC3)cc2C(=O)N1Cc1ccc(Cl)cn1", "note": "(single isomer, unassigned) [Example 296]", "values": [{"measurement": "inhibition at 0.001 µM", "setting": "[1]; [2]", "value": 62, "unit": "%"}]}, {"molecule": "CO[C@]1(c2ccc(Cl)cc2)c2ccc(C(C)(O)CN3CCNC3=O)cc2C(=O)N1Cc1ccc(Cl)cn1", "note": "(single isomer, unassigned) [Example 158]", "values": [{"measurement": "inhibition at 0.1 µM", "setting": "[1]; [3]", "value": 57, "unit": "%"}]}, {"molecule": "CO[C@]1(c2ccc(Cl)cc2)c2ccc(C(C)(O)CN3CCOCC3=O)cc2C(=O)N1Cc1ccc(Cl)cn1", "note": "(single isomer, unassigned) [Example 327]", "values": [{"measurement": "inhibition at 0.3 µM", "setting": "[1]; [5]", "value": 42, "unit": "%"}]}, {"molecule": "CCC(O)(c1cc(F)c2c(c1)C(=O)N(Cc1ccc(C#N)cn1)[C@@]2(O[C@H]1CCOC1)c1ccc(Cl)cc1)C1(F)CCOCC1", "note": "(single isomer, unassigned) [Example 445]", "values": [{"measurement": "MDM2 % @ concentration", "setting": "[1]; @ 0.0010 μM", "value": 43, "unit": "% @ 0.0010"}, {"measurement": "inhibition at 0.1 µM", "setting": "[1]; read-out: MDM2 % @ concentration, @ 0.10 μM", "value": 56, "unit": "%"}]}, {"molecule": "CO[C@]1(c2ccc(Cl)cc2)c2ccc(C(C)(O)C(=O)NCCN(C)C)cc2C(=O)N1Cc1ccc(Cl)cn1", "note": "(stereo partly drawn) [Example 149, 2-[(1R)-1-(4-Chlorophenyl)-2-[(5-chloropyridin-2-yl)methyl]-1-methoxy-3-oxo-2,3-dihydro-1H-isoindol-5-yl]-N-[2-(dimethylamino)ethyl]-2-hydroxypropanamide]", "values": [{"measurement": "inhibition at 1 µM", "setting": "[1]; @ 1.0 μM, read-out: MDM2 % @ concentration", "value": 53, "unit": "%"}]}, {"molecule": "Cn1cc(C(C)(O)c2cc(F)c3c(c2)C(=O)N(Cc2ncc(F)cc2F)[C@@]3(OCC2(O)CC2)c2ccc(Cl)cc2)cn1", "note": "(single isomer, unassigned) [Example 351]", "values": [{"measurement": "inhibition at 0.1 µM", "setting": "[1]; [3]", "value": 25, "unit": "%"}]}, {"molecule": "CCC(O)(c1cc(F)c2c(c1)C(=O)N(Cc1ncc(Cl)cc1O)[C@@]2(O[C@H]1C[C@@H](O)C1)c1ccc(Cl)cc1)c1cn(C)cn1", "note": "(single isomer, unassigned) [Example 488]", "values": [{"measurement": "inhibition at 0.1 µM", "setting": "[1]; [3]", "value": 56, "unit": "%"}]}]}
